Experimental findings from PubChem BioAssay (NCI) are described below.

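Dose response: 5 concentrations. Exposure: 48 h. Format: 96-well plates. Endpoint: linear interpolation; highest concentration if not reached. GI50 marks 50% less growth. TGI denotes the concentration required for complete inhibition of growth.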 Where only a bound is given, the exact number is not on record here.

Test systems include ACHN renal; BT-549 breast; HCC-2998 colon; HT29 colon; KM12 colon; MDA-MB-435; NCI-H23 lung; OVCAR-4 ovarian; SF-268 CNS; SF-539 CNS.
What all share (test): inhibition of tumour cell growth, NCI panel, 48 h

`COc1ccc2[nH]cc(-c3nc(-c4c[nH]c5ccncc45)cs3)c2c1`: the GI50 with ACHN renal is 1.66 µM; in the experiment with BT-549 breast, 8.96 µM; in the experiment on HCC-2998 colon, 1.87 µM; in the experiment on HT29 colon it was 2.23 µM; in the experiment with KM12 colon it was 1.76 µM; in the experiment with MDA-MB-435, 1.68 µM. Moreover, the GI50 in the experiment with NCI-H23 lung was 1.76 µM; with OVCAR-4 ovarian, 2.94 µM; in the experiment with SF-268 CNS, 2.61 µM; in the experiment on SF-539 CNS it was 1.64 µM. Besides, the TGI was determined as 3.14 µM with ACHN renal; 21.3 µM in the experiment on BT-549 breast; 3.32 µM in the experiment with HCC-2998 colon; 4.87 µM in the experiment with HT29 colon; 3.75 µM with KM12 colon; 3.13 µM in the experiment with MDA-MB-435. In addition, the TGI in the experiment with NCI-H23 lung was 3.85 µM; in the experiment on OVCAR-4 ovarian, 8.85 µM; with SF-268 CNS, 6.97 µM; in the experiment on SF-539 CNS, 3.09 µM.

Regarding `N=C(N)c1ccc(-c2ccc(-c3ccc(F)cc3)o2)o1`, the GI50 with ACHN renal is 1.6 µM; in the experiment on BT-549 breast it was 2.27 µM; with HCC-2998 colon, 1.37 µM; in the experiment with HT29 colon, 0.606 µM; in the experiment with KM12 colon it was 1.44 µM; with MDA-MB-435, 0.347 µM. Besides, the GI50 in the experiment on NCI-H23 lung was 1.93 µM; in the experiment on OVCAR-4 ovarian, 1.62 µM; with SF-268 CNS, 1.92 µM; in the experiment on SF-539 CNS it was 1.63 µM. Also, the TGI turned out to be 2.97 µM with ACHN renal; 7.19 µM with BT-549 breast; 2.81 µM with HCC-2998 colon; 1.94 µM in the experiment on HT29 colon; 3.41 µM with KM12 colon; 1.3 µM in the experiment on MDA-MB-435. Moreover, the TGI in the experiment with NCI-H23 lung was 4.88 µM; with OVCAR-4 ovarian, 3.2 µM; with SF-268 CNS, 4.67 µM; with SF-539 CNS, 3.08 µM.

In the case of `COc1ccc(-n2c(C)nc3c(c(C)nn3-c3ccccc3)c2=O)cc1`, the GI50 in the experiment with ACHN renal is 0.0645 µM; with BT-549 breast, 0.123 µM; with HCC-2998 colon, 0.191 µM; with HT29 colon it was 0.0467 µM; in the experiment on KM12 colon, 0.0532 µM; in the experiment on MDA-MB-435, 0.0305 µM. Further, the GI50 is 0.218 µM with NCI-H23 lung, 1.11 µM in the experiment on OVCAR-4 ovarian, 1.76 µM in the experiment on SF-268 CNS and 0.0471 µM in the experiment on SF-539 CNS. For the same molecule, the TGI was over 100 µM in the experiment with ACHN renal; 33.8 µM in the experiment on BT-549 breast; over 100 µM with HCC-2998 colon; over 31.9 µM with HT29 colon; over 100 µM with KM12 colon; 0.116 µM with MDA-MB-435. The TGI in the experiment on NCI-H23 lung, in the experiment on OVCAR-4 ovarian and in the experiment on SF-268 CNS was over 100 µM each time.

With `CC(=O)OC12CC(C)C3(O)C4C=C(C)C(=O)[C@@]4(O)CC(CO)=C[C@H]3C1C2(C)C` (some centres not stated), the GI50 is over 1000 µM in the experiment on ACHN renal; over 1000 µM in the experiment with BT-549 breast; 2.35 µM with HCC-2998 colon; over 1000 µM with HT29 colon; over 1000 µM with KM12 colon; 0.205 µM in the experiment with MDA-MB-435. Also, the GI50 in the experiment on NCI-H23 lung, in the experiment on OVCAR-4 ovarian, in the experiment with SF-268 CNS and in the experiment on SF-539 CNS was over 1000 µM in each case. Besides, the TGI in the experiment with ACHN renal, in the experiment on BT-549 breast, in the experiment on HT29 colon, in the experiment on KM12 colon, in the experiment with NCI-H23 lung and with OVCAR-4 ovarian was over 1000 µM throughout. The TGI with SF-268 CNS and with SF-539 CNS was over 1000 µM each time.

Consider `COc1ccc(/C=C\c2cc(OC)c(OC)c(OC)c2)cc1OCC(=O)Nc1nc2ccc(OC(F)(F)F)cc2s1`, for which the GI50 in the experiment on ACHN renal is 8.31 µM; in the experiment with BT-549 breast, 10.5 µM; in the experiment with HCC-2998 colon it was 17.1 µM; with HT29 colon it was over 100 µM; in the experiment on KM12 colon, 4.48 µM; in the experiment with MDA-MB-435, 1.93 µM. Moreover, the GI50 was 4.39 µM in the experiment with NCI-H23 lung, 5.34 µM with OVCAR-4 ovarian, 6.01 µM in the experiment with SF-268 CNS and 2.28 µM in the experiment on SF-539 CNS. Moreover, the TGI in the experiment on ACHN renal was over 100 µM; with BT-549 breast, over 100 µM; in the experiment with HCC-2998 colon, over 100 µM; with HT29 colon, over 100 µM; in the experiment on KM12 colon it was 51.5 µM; in the experiment with MDA-MB-435, 5.14 µM. Besides, the TGI in the experiment with NCI-H23 lung is over 100 µM; in the experiment on OVCAR-4 ovarian, over 100 µM; in the experiment with SF-268 CNS, over 100 µM; in the experiment with SF-539 CNS it was 6.13 µM.

`Cc1cc(N=C2C=C(Nc3cc(C)on3)C(=O)c3ccccc32)no1`: the TGI is over 100 µM in the experiment with ACHN renal; 74.9 µM with BT-549 breast; over 100 µM in the experiment with HCC-2998 colon; over 100 µM with HT29 colon; over 100 µM in the experiment on KM12 colon; 22.5 µM with MDA-MB-435. The TGI in the experiment with NCI-H23 lung was 26 µM; in the experiment with OVCAR-4 ovarian it was over 100 µM; in the experiment on SF-268 CNS, over 100 µM; with SF-539 CNS, over 59.7 µM.

As to `Cc1ccc(F)cc1NC(=O)c1cc(Cl)ccc1Nc1ccccc1`, the GI50 in the experiment on ACHN renal, in the experiment with BT-549 breast, in the experiment on HCC-2998 colon, with HT29 colon, in the experiment with KM12 colon and in the experiment with MDA-MB-435 was over 100 µM throughout. Moreover, the GI50 in the experiment with NCI-H23 lung was over 100 µM; in the experiment on OVCAR-4 ovarian it was 15.9 µM; in the experiment with SF-268 CNS, over 100 µM; with SF-539 CNS it was 40.7 µM. Further, the TGI in the experiment on ACHN renal, with BT-549 breast, with HCC-2998 colon, in the experiment on HT29 colon, in the experiment with KM12 colon and in the experiment on MDA-MB-435 was over 100 µM in each case. Also, the TGI in the experiment with NCI-H23 lung, with OVCAR-4 ovarian, in the experiment with SF-268 CNS and in the experiment with SF-539 CNS was over 100 µM in each case.

For `COc1ccc2c(c1)C(=O)c1c-2n(CCCN2CCOCC2)c(=O)c2cc([N+](=O)[O-])ccc12`, the GI50 in the experiment with ACHN renal, with BT-549 breast, with HCC-2998 colon, with HT29 colon, in the experiment with KM12 colon and in the experiment with MDA-MB-435 was under 0.01 µM in each case. The GI50 was under 0.01 µM in the experiment with NCI-H23 lung, under 0.0264 µM in the experiment with OVCAR-4 ovarian, under 0.01 µM in the experiment with SF-268 CNS and under 0.01 µM with SF-539 CNS. For the same molecule, the TGI was under 0.0108 µM in the experiment on ACHN renal; 0.448 µM with BT-549 breast; 0.153 µM in the experiment on HCC-2998 colon; over 100 µM in the experiment with HT29 colon; 0.544 µM with KM12 colon; 11 µM in the experiment with MDA-MB-435. Further, the TGI in the experiment with NCI-H23 lung was under 0.01 µM; with OVCAR-4 ovarian, 6.55 µM; in the experiment on SF-268 CNS, over 100 µM; in the experiment with SF-539 CNS it was under 0.01 µM.

`CNCCOC(=O)/C=C1/CCC2C(C(O)CC3C(C)(C(=O)OC)CCCC23C)C1C` (configuration not stated): the GI50 with ACHN renal was under 0.01 µM; in the experiment on BT-549 breast, 0.0242 µM; in the experiment on HCC-2998 colon it was 0.0329 µM; in the experiment on HT29 colon, 0.0231 µM; in the experiment with KM12 colon it was 0.0339 µM; in the experiment on MDA-MB-435, 0.0289 µM. Besides, the GI50 with NCI-H23 lung was 0.0153 µM; in the experiment on OVCAR-4 ovarian, 0.0183 µM; with SF-268 CNS, under 0.01 µM; in the experiment with SF-539 CNS, 0.0206 µM. The TGI in the experiment on ACHN renal is 0.0173 µM; in the experiment on BT-549 breast, 0.064 µM; in the experiment with HCC-2998 colon, 0.115 µM; in the experiment with HT29 colon, 0.0473 µM; with KM12 colon it was 0.111 µM; in the experiment on MDA-MB-435 it was 0.0881 µM. In addition, the TGI came to 0.0355 µM in the experiment on NCI-H23 lung, 0.034 µM with OVCAR-4 ovarian, 0.02 µM in the experiment on SF-268 CNS and 0.0408 µM with SF-539 CNS.

As for `O=C(NC1(C(=O)O)CC1c1ccccc1)c1ccccc1` (configuration not stated), the TGI in the experiment with ACHN renal, with BT-549 breast, in the experiment with HCC-2998 colon, with HT29 colon, in the experiment with KM12 colon and with MDA-MB-435 was over 100 µM in each case. Moreover, the TGI with NCI-H23 lung, with OVCAR-4 ovarian, in the experiment with SF-268 CNS and in the experiment on SF-539 CNS was over 100 µM throughout.

Take `CCOC(=O)/C(=C\c1ccc(F)cc1)C(C)=O`: the TGI with ACHN renal was 50.7 µM; in the experiment with BT-549 breast it was 51.4 µM; with HCC-2998 colon it was 26.6 µM; in the experiment on HT29 colon it was over 100 µM; in the experiment with KM12 colon, 69 µM; in the experiment with MDA-MB-435, over 100 µM. The TGI was 46 µM in the experiment with NCI-H23 lung, over 100 µM in the experiment with OVCAR-4 ovarian, over 100 µM with SF-268 CNS and over 100 µM with SF-539 CNS.

As to `COC(=O)[C@@H]1CCCN1C(=O)[C@H]1CCCN1C(=O)[C@@H](Cc1c[nH]c2ccccc12)NC(=S)Nc1cc(C(F)(F)F)cc(C(F)(F)F)c1`, the GI50 is 2.97 µM in the experiment with ACHN renal; 3.52 µM in the experiment with BT-549 breast; 2.05 µM in the experiment on HCC-2998 colon; 1.97 µM in the experiment on HT29 colon; 2.84 µM in the experiment with KM12 colon; 2.9 µM in the experiment on MDA-MB-435. The GI50 was 3.13 µM with NCI-H23 lung, 2.29 µM in the experiment with OVCAR-4 ovarian, 3.51 µM in the experiment with SF-268 CNS and 3.83 µM in the experiment with SF-539 CNS. The TGI in the experiment with ACHN renal was determined as 11 µM; with BT-549 breast, 11.3 µM; in the experiment on HCC-2998 colon it was 4.3 µM; in the experiment on HT29 colon it was 3.84 µM; in the experiment on KM12 colon it was 8.01 µM; in the experiment on MDA-MB-435, 9.07 µM. Besides, the TGI with NCI-H23 lung came to 11.4 µM; with OVCAR-4 ovarian it was 7.55 µM; in the experiment on SF-268 CNS, 12.1 µM; in the experiment on SF-539 CNS, 14.3 µM.

Turning to `COc1ccc(C(=O)CC(c2ccc(OC)c(OC)c2)c2c(O)c3ccccc3oc2=O)cc1OC` (configuration not stated), the TGI in the experiment on ACHN renal, in the experiment with BT-549 breast, in the experiment with HCC-2998 colon, in the experiment with HT29 colon, in the experiment with KM12 colon and in the experiment on MDA-MB-435 was over 100 µM in each case. Also, the TGI with NCI-H23 lung, in the experiment with OVCAR-4 ovarian, in the experiment with SF-268 CNS and in the experiment on SF-539 CNS was over 100 µM in each case.
